From patent US20040156869A1, “2-substituted quinazolin-4-ylamine analogues” (Neurogen Corporation, priority 2002, published 2004)

What follows are compounds tested against human capsaicin receptor (VR1) (Homo sapiens, UniProt Q8NER1) (assay: Capsaicin receptor binding assay ([3H]RTX competition, VR1-transfected HEK293 membranes)).
Sequence of human capsaicin receptor (VR1) (Q8NER1 whole entry): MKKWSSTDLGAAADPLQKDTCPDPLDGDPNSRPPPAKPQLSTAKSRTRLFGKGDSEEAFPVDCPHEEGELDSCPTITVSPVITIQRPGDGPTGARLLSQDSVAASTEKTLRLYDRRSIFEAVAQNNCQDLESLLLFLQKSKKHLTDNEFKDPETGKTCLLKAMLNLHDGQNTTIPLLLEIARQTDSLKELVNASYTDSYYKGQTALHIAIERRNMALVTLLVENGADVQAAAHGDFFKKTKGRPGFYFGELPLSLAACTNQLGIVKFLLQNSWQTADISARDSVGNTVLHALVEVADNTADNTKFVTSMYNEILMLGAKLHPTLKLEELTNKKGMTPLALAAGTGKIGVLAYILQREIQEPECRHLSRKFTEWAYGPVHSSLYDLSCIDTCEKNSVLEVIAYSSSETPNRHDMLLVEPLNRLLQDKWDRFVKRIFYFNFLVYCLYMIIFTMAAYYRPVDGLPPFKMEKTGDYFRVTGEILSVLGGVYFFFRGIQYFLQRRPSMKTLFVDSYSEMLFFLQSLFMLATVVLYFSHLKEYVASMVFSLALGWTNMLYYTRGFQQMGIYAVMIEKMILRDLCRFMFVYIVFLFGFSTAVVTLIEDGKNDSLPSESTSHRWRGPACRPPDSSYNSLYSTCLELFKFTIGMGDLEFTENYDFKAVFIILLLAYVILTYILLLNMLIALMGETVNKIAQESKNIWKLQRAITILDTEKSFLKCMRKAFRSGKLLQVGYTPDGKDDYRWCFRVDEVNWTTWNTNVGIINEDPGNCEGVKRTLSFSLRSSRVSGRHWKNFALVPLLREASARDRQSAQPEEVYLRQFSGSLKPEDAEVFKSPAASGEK

Ki, < 1000 nM:
Cc1cccnc1-c1ccc2c(Nc3ccc(C(C)C)cc3)nc(CN(C)C)nc2c1 [Compound 711, [2-Dimethylaminomethyl-7-(3-methyl-pyridin-2-yl)-quinazolin-4-yl]-(4-isopropyl-phenyl)-amine]
Cc1cccnc1-c1ccc2c(Nc3ccc(C(C)C)cc3)nc(CN3CCOCC3)nc2c1 [Compound 712, (4-Isopropyl-phenyl)-[7-(3-methyl-pyridin-2-yl)-2-morpholin-4-ylmethyl-quinazolin-4-yl]-amine]
Cc1cccnc1-c1ccc2c(Nc3ccc(C(C)C)cc3)nc(CN3CCSCC3)nc2c1 [Compound 713, (4-Isopropyl-phenyl)-[7-(3-methyl-pyridin-2-yl)-2-thiomorpholin-4-ylmethyl-quinazolin-4-yl]-amine]
Cc1cccnc1-c1ccc2c(Nc3ccc(C(C)C)cc3)nc(CN3CCCC(C)(C)C3)nc2c1 [Compound 714, [2-(3,3-Dimethyl-piperidin-1-ylmethyl)-7-(3-methyl-pyridin-2-yl)-quinazolin-4-yl]-(4-isopropyl-phenyl)-amine]
CCCN(CC)Cc1nc(Nc2ccc(C(C)C)cc2)c2ccc(-c3ncccc3C)cc2n1 [Compound 715, [2-[(Ethyl-propyl-amino)-methyl]-7-(3-methyl-pyridin-2-yl)-quinazolin-4-yl]-(4-isopropyl-phenyl)-amine]
CCCN(C)Cc1nc(Nc2ccc(C(C)C)cc2)c2ccc(-c3ncccc3C)cc2n1 [Compound 716, (4-Isopropyl-phenyl)-[2-[(methyl-propyl-amino)-methyl]-7-(3-methyl-pyridin-2-yl)-quinazolin-4-yl]-amine]
CCN(Cc1nc(Nc2ccc(C(C)C)cc2)c2ccc(-c3ncccc3C)cc2n1)C(C)C [Compound 717, [2-[(Ethyl-isopropyl-amino)-methyl]-7-(3-methyl-pyridin-2-yl)-quinazolin-4-yl]-(4-isopropyl-phenyl)-amine]
Cc1cccnc1-c1ccc2c(Nc3ccc(C(C)C)cc3)nc(CN(C)C(C)C)nc2c1 [Compound 718, [2-[(Isopropyl-methyl-amino)-methyl]-7-(3-methyl-pyridin-2-yl)-quinazolin-4-yl]-(4-isopropyl-phenyl)-amine]
COCCN(CCOC)Cc1nc(Nc2ccc(C(C)C)cc2)c2ccc(-c3ncccc3C)cc2n1 [Compound 719, [2-{[Bis-(2-methoxy-ethyl)-amino]-methyl}-7-(3-methyl-pyridin-2-yl)-quinazolin-4-yl]-(4-isopropyl-phenyl)-amine]
C[C@@H]1CN(Cc2nc(Nc3ccc(S(=O)(=O)N4CCOCC4)cc3)c3ncc(-c4ncccc4Cl)cc3n2)C[C@H](C)O1 [Compound 720, [7-(3-Chloro-pyridin-2-yl)-2-(2,6-dimethyl-morpholin-4-ylmethyl)-pyrido[3,2-d]pyrimidin-4-yl]-[4-(morpholine-4-sulfonyl)-phenyl]-amine (cis)]
CN(C)Cc1nc(Nc2ccc(S(=O)(=O)N3CCOCC3)cc2)c2ccc(-c3ncccc3C(F)(F)F)cc2n1 [Compound 721, [2-Dimethylaminomethyl-7-(3-trifluoromethyl-pyridin-2-yl)-quinazolin-4-yl]-[4-(morpholine-4-sulfonyl)-phenyl]-amine]
CC(C)N(C)Cc1nc(Nc2ccc(S(=O)(=O)N3CCOCC3)cc2)c2ccc(-c3ncccc3C(F)(F)F)cc2n1 [Compound 723, [2-[(Isopropyl-methyl-amino)-methyl]-7-(3-trifluoromethyl-pyridin-2-yl)-quinazolin-4-yl]-[4-(morpholine-4-sulfonyl)-phenyl]-amine]
CCCN(CC)Cc1nc(Nc2ccc(S(=O)(=O)N3CCOCC3)cc2)c2ccc(-c3ncccc3C(F)(F)F)cc2n1 [Compound 724, [2-[(Ethyl-propyl-amino)-methyl]-7-(3-trifluoromethyl-pyridin-2-yl)-quinazolin-4-yl]-[4-(morpholine-4-sulfonyl)-phenyl]-amine]
CCOCN(COCC)Cc1nc(Nc2ccc(C(F)(F)F)cc2)c2ccc(-c3ncccc3C)cc2n1 [Compound 725, [2-[(Bis-ethoxymethyl-amino)-methyl]-7-(3-methyl-pyridin-2-yl)-quinazolin-4-yl]-(4-trifluoromethyl-phenyl)-amine]
CCCN(CCC)Cc1nc(Nc2ccc(C(F)(F)F)cc2)c2ccc(-c3ncccc3C)cc2n1 [Compound 726, [2-Dipropylaminomethyl-7-(3-methyl-pyridin-2-yl)-quinazolin-4-yl]-(4-trifluoromethyl-phenyl)-amine]
Cc1cccnc1-c1ccc2c(Nc3ccc(C(F)(F)F)cc3)nc(C3CN(C(=O)OC(C)(C)C)C3)nc2n1 [Compound 727, 3-[7-(3-Methyl-pyridin-2-yl)-4-(4-trifluoromethyl-phenylamino)-pyrido[2,3-d]pyrimidin-2-yl]-azetidine-1-carboxylic acid tert-butyl ester]
O=C(O)C1CCN(Cc2nc(Nc3ccc(C(F)(F)F)cc3)c3ccc(-c4ncccc4C(F)(F)F)cc3n2)CC1 [Compound 728, 1-[4-(4-Trifluoromethyl-phenylamino)-7-(3-trifluoromethyl-pyridin-2-yl)-quinazolin-2-ylmethyl]-piperidine-4-carboxylic acid]
O=C(O)C1CCCN(Cc2nc(Nc3ccc(C(F)(F)F)cc3)c3ccc(-c4ncccc4C(F)(F)F)cc3n2)C1 (stereo not shown) [Compound 729, 1-[4-(4-Trifluoromethyl-phenylamino)-7-(3-trifluoromethyl-pyridin-2-yl)-quinazolin-2-ylmethyl]-piperidine-3-carboxylic acid]
O=C(O)[C@@H]1CCCN1Cc1nc(Nc2ccc(C(F)(F)F)cc2)c2ccc(-c3ncccc3C(F)(F)F)cc2n1 [Compound 730, (S)-1-[4-(4-Trifluoromethyl-phenylamino)-7-(3-trifluoromethyl-pyridin-2-yl)-quinazolin-2-ylmethyl]-pyrrolidine-2-carboxylic acid]
Cc1cccnc1-c1ccc2c(Nc3ccc(C(F)(F)F)cc3)nc(CN3CCCC(C)(C)C3)nc2c1 [Compound 731, [2-(3,3-Dimethyl-piperidin-1-ylmethyl)-7-(3-methyl-pyridin-2-yl)-quinazolin-4-yl]-(4-trifluoromethyl-phenyl)-amine]
Cc1cccnc1-c1ccc2c(Nc3ccc(C(F)(F)F)cc3)nc(CN3CC[C@@H](O)C3)nc2c1 [Compound 732, (R)-1-[7-(3-Methyl-pyridin-2-yl)-4-(4-trifluoromethyl-phenylamino)-quinazolin-2-ylmethyl]-pyrrolidin-3-ol]
Cc1cccnc1-c1ccc2c(Nc3ccc(C(F)(F)F)cc3)nc(CN3CC[C@@H](CO)C3)nc2c1 [Compound 733, (R)-{1-[7-(3-Methyl-pyridin-2-yl)-4-(4-trifluoromethyl-phenylamino)-quinazolin-ylmethyl]-pyrrolidin-3-yl}-methanol]
